Data set [1] in a line: Pharmacokinetic study in rats after a single intravenous administration of concentrated Kudiezi injection (HPLC-MS/MS of plasma). Type of data set: in vivo, Sprague-Dawley rats. As to conditions: single i.v. 3.6 mL/kg of 15 times concentrated KI, mean ± SD; for MRT last: n = 5, read-out: MRT0-t; for MRT inf: n = 5, read-out: MRT0-∞.
Method: Eight male Sprague-Dawley rats (200 ± 20 g) were obtained from Laboratory Animal Center of Fujian Medical University (Fuzhou, China). The animal studies were conducted in accordance with the Guide for the Care and Use of Laboratory Animals published by the USA National Institutes of Health (NIH Publication No. 85-23, revised 1996) and were approved by the Animal Ethic Review Committee of Fujian Medical University (Fuzhou, China). The rats were housed in rat cages (48 × 29 × 18 cm^3), in a unidirectional airflow room at a temperature of 22 ± 2 °C, a relative humidity of 40–70% and a 12 h light/dark cycle. They were fed with freely available commercial food and filtered tap water, and fasted with free access to water for 12 h before the experiments. Three of these rats were selected randomly as blank group with the above mentioned feeding conditions and without administration of drug, and after 24 h from the beginning of the experiment, their blood was collected up exhaustively from abdominal aorta to provide blank plasma for methodological validation. […] All rats were acclimated to the facilities and environment for 7 days before the experiments.
After administration, the rat tail was carefully cleaned with alcohol soaked cotton balls around the injection site to remove the residual drug. Blood was collected from the cut-tail before dosing and at the following time points: 2.5, 5, 10, 15, 20, 30, 45 min and 1, 2, 3, 4, 6, 8, 12 and 24 h after dosing. Plasma was isolated from the blood samples by centrifugation and then stored at −80 °C until analysis.
Noncompartmental pharmacokinetic parameters were calculated by DAS 3.0 software (Version DAS 3.2.8, Chinese Pharmacologic Society, Beijing, China). All the results are expressed as mean ± SD. A single-tailed Student’s t test was performed in the work.
Data set [2] can be described thus: Stability of the nine components in rat plasma QC samples (auto-sampler, freeze-thaw, long-term). Type of data set: physicochemical. The settings on record: n = 5; for 6 h in Auto-Sample, RE: extracted rat plasma; for Freeze-Thaw Stability (Three Cycles), RE / Long-Term Stability (−80 °C, 14 Days), RE: rat plasma. As for the experimental part:
The stability of the nine components in rat plasma was investigated under a variety of storage and process conditions. Table 4 summarizes the results of post-preparation (The QC samples were kept in the auto-sampler for 6 h), freeze and thaw and long-term (at −80 °C for 14 days) stability experiments.
Stability of the nine components were assessed under the condition of placing extracted plasma samples in auto-sampler for 6 h, as well as placing plasma samples within freeze-thaw three cycles and at −80 °C for 14 days. LQC, MQC and HQC samples with five replicates at each level were kept at the above conditions and analyzed against freshly prepared calibrators as the reference.

The test system of data set [3] is Mas-related G protein coupled receptor X2. The arrangement: method as in PMID 30048896. The settings on record: cited from earlier work.
[4] abbreviates: male, Sprague-Dawley, rat, plasma, iv, 3.6 mL/kg, n = 5.
Setting [5] is: male, Sprague-Dawley, rat, plasma, iv, 3.6 mL/kg, n = 5, read-out: AUC0-t.
Where [6] appears, read: male, Sprague-Dawley, rat, plasma, iv, 3.6 mL/kg.
Where [7] appears, read: male, Sprague-Dawley, rat, plasma, iv, 3.6 mL/kg, n = 5, read-out: Vd.
Where [8] appears, read: HQC spiked 2000 ng/mL (4000 ng/mL for II).
Where [9] appears, read: LQC spiked 15 ng/mL (30 ng/mL for II).
Setting [10] is: MQC spiked 500 ng/mL (1000 ng/mL for II).

Where two headings read alike, the source gives them in different places.

As a reminder, the AUC(0-inf) is total exposure, with the tail of the curve extrapolated. A high value points to high exposure. Usually clearance stands for the volume of plasma or blood freed of the substance per unit of time. Read a high clearance as a high capacity for elimination. What is called half-life is the time needed for the level to fall by half in the phase considered. A higher half-life goes with slow loss. As a reminder, the Vd is the apparent volume that relates the amount in the body to the concentration in plasma or blood. Take `O=C(/C=C/c1ccc(O)c(O)c1)O[C@@H](C(=O)O)[C@@H](O)C(=O)O` [II, caftaric acid]: in data set [1] (setting [4]), the AUC(0-inf) came out at 3080 ± 483 ng·h/mL, the clearance was 64.2 mL/min/kg and the half-life is 3.93 ± 0.47 h. Also, in data set [1] (setting [5]), the AUC(0-t) was 2760 ± 400 ng·h/mL. For the same molecule, in data set [1] (setting [6]), the MRT last amounted to 3.84 ± 1.84 h and the MRT inf came out at 6.25 ± 2.83 h. The volume of distribution (Vd) in data set [1] (setting [7]) was determined as 22.1 ± 6.21 L/kg. In data set [2] (setting [8]), the “6 h in Auto-Sample, RE” value is reported as 3.63%; the “Freeze-Thaw Stability (Three Cycles), RE” value was 3.72%; the “Long-Term Stability (−80 °C, 14 Days), RE” value (from here on “Long-Term Stability”) is −10.05%. In addition, in data set [2] (setting [9]), the “6 h in Auto-Sample, RE” value is −12.49%; the “Freeze-Thaw Stability (Three Cycles), RE” value was −17.36%; the “Long-Term Stability” value is reported as 1.30%. Further, in data set [2] (setting [10]), the “6 h in Auto-Sample, RE” value is recorded as −9.25%; the “Freeze-Thaw Stability (Three Cycles), RE” value is 2.66%; the “Long-Term Stability” value is −5.34%.
In data set [1] (setting [4]), `O=C(/C=C/c1ccc(O)c(O)c1)O[C@H]1[C@H](O)C[C@](O)(C(=O)O)C[C@H]1O` [IV, 4-caffeoylquinic acid] had an AUC(0-inf) of 209 ± 54 ng·h/mL, a clearance of 30.2 mL/min/kg and a half-life of 2.92 ± 1.13 h. The AUC(0-t) in data set [1] (setting [5]) was determined as 160 ± 39.4 ng·h/mL. In data set [1] (setting [6]), the MRT last is 2.72 ± 1.32 h and the MRT inf was 5.07 ± 2.17 h. In addition, the Vd in data set [1] (setting [7]) is 7.03 ± 1.29 L/kg. In data set [2] (setting [8]), the “6 h in Auto-Sample, RE” value was 6.12%; the “Freeze-Thaw Stability (Three Cycles), RE” value was determined as 6.55%; the “Long-Term Stability” value is 2.14%. Moreover, in data set [2] (setting [9]), the “6 h in Auto-Sample, RE” value is −14.16%; the “Freeze-Thaw Stability (Three Cycles), RE” value is given as −14.73%; the “Long-Term Stability” value was −10.44%. For the same molecule, in data set [2] (setting [10]), the “6 h in Auto-Sample, RE” value is given as −15.00%; the “Freeze-Thaw Stability (Three Cycles), RE” value is listed as −0.15%; the “Long-Term Stability” value was −1.40%.
In the case of `O=c1cc(-c2ccc(O)c(O)c2)oc2cc(O[C@@H]3O[C@H](CO)[C@@H](O)[C@H](O)[C@H]3O)cc(O)c12` [VIII, luteolin-7-O-β-D-glucoside], in data set [1] (setting [4]), the AUC(0-inf) came out at 31 ± 2.09 ng·h/mL, the clearance is 138 mL/min/kg and the half-life is 0.13 ± 0.02 h. The AUC(0-t) in data set [1] (setting [5]) was determined as 29.5 ± 2.38 ng·h/mL. In addition, in data set [1] (setting [6]), the MRT last came out at 0.09 ± 0.02 h and the MRT inf stood at 0.11 ± 0.02 h. Moreover, the Vd in data set [1] (setting [7]) was found to be 1.51 ± 0.35 L/kg. Further, the “identified as potential anaphylactoid component in KI” value in data set [3] is on record as “potential anaphylactoid components”. Besides, in data set [2] (setting [8]), the “6 h in Auto-Sample, RE” value was determined as 0.65%; the “Freeze-Thaw Stability (Three Cycles), RE” value is listed as 3.11%; the “Long-Term Stability” value came out at 11.47%. In data set [2] (setting [9]), the “6 h in Auto-Sample, RE” value is given as −12.91%; the “Freeze-Thaw Stability (Three Cycles), RE” value was −11.91%; the “Long-Term Stability” value is −1.72%. Further, in data set [2] (setting [10]), the “6 h in Auto-Sample, RE” value is given as −8.04%; the “Freeze-Thaw Stability (Three Cycles), RE” value is given as 0.67%; the “Long-Term Stability” value came to 0.81%.
Take `O=C(/C=C/c1ccc(O)c(O)c1)O[C@@H]1C[C@](O)(C(=O)O)C[C@@H](O)[C@H]1O` [I, 5-caffeoylquinic acid]: in data set [1] (setting [4]), the AUC(0-inf) amounted to 209 ± 75.7 ng·h/mL, the clearance was 49.8 mL/min/kg and the half-life is 2.22 ± 1.15 h. The AUC(0-t) in data set [1] (setting [5]) was 170 ± 55.7 ng·h/mL. Moreover, in data set [1] (setting [6]), the MRT last was found to be 2.29 ± 1.65 h and the MRT inf came to 3.94 ± 2.71 h. The volume of distribution (Vd) in data set [1] (setting [7]) was 8.22 ± 2.51 L/kg. For the same molecule, in data set [2] (setting [8]), the “6 h in Auto-Sample, RE” value is recorded as −5.26%; the “Freeze-Thaw Stability (Three Cycles), RE” value was −2.66%; the “Long-Term Stability” value is given as −3.42%. In addition, in data set [2] (setting [9]), the “6 h in Auto-Sample, RE” value is recorded as −15.03%; the “Freeze-Thaw Stability (Three Cycles), RE” value is recorded as −16.92%; the “Long-Term Stability” value is −10.71%. In addition, in data set [2] (setting [10]), the “6 h in Auto-Sample, RE” value was −14.93%; the “Freeze-Thaw Stability (Three Cycles), RE” value is −8.67%; the “Long-Term Stability” value is −1.12%.
In data set [1] (setting [4]), `O=C(O)[C@H]1O[C@@H](Oc2cc(O)c3c(=O)cc(-c4ccc(O)c(O)c4)oc3c2)[C@H](O)[C@@H](O)[C@@H]1O` [VII, luteolin-7-O-β-D-glucuronide] gave an AUC(0-inf) of 680 ± 109 ng·h/mL, a clearance of 95.5 mL/min/kg and a half-life of 0.66 ± 0.2 h. The AUC(0-t) in data set [1] (setting [5]) is 672 ± 107 ng·h/mL. Moreover, in data set [1] (setting [6]), the MRT last amounted to 0.25 ± 0.11 h and the MRT inf was determined as 0.3 ± 0.12 h. In addition, in data set [1] (setting [7]), the Vd came to 5.3 ± 1.21 L/kg. For the same molecule, in data set [3], the “identified as potential anaphylactoid component in KI” value is on record as “potential anaphylactoid components”. Besides, in data set [2] (setting [8]), the “6 h in Auto-Sample, RE” value was found to be 5.65%; the “Freeze-Thaw Stability (Three Cycles), RE” value was found to be 9.76%; the “Long-Term Stability” value stood at 8.01%. Further, in data set [2] (setting [9]), the “6 h in Auto-Sample, RE” value is −7.74%; the “Freeze-Thaw Stability (Three Cycles), RE” value is recorded as −10.80%; the “Long-Term Stability” value is listed as −2.91%. Besides, in data set [2] (setting [10]), the “6 h in Auto-Sample, RE” value is given as −12.46%; the “Freeze-Thaw Stability (Three Cycles), RE” value is reported as −1.08%; the “Long-Term Stability” value is given as −0.26%.
As to `O=C(/C=C/c1ccc(O)c(O)c1)O[C@@H]1C[C@](O)(C(=O)O)C[C@@H](O)[C@H]1O` [III, chlorogenic acid], in data set [1] (rat plasma, n = 5), the “AUC0-∞” value was 199.84 ± 37.15 ng·h/mL, the AUC(0-t) was 155.43 ± 23.39 ng·h/mL, the Cl worked out at 42.2 ± 7.17 mL/min/kg and the MRT0-t is recorded as 3.30 ± 0.99 h. Further, in data set [1] (rat plasma, n = 5), the “MRT0-∞” value is 5.93 ± 1.39 h, the distribution volume (Vd) worked out at 11.96 ± 3.10 L/kg and the t1/2 is recorded as 3.36 ± 0.97 h. In data set [2] (setting [8]), the “6 h in Auto-Sample, RE” value is reported as −2.78%; the “Freeze-Thaw Stability (Three Cycles), RE” value stood at 2.98%; the “Long-Term Stability” value came to 2.07%. Besides, in data set [2] (setting [9]), the “6 h in Auto-Sample, RE” value is given as −7.40%; the “Freeze-Thaw Stability (Three Cycles), RE” value was −18.29%; the “Long-Term Stability” value was −1.71%. Moreover, in data set [2] (setting [10]), the “6 h in Auto-Sample, RE” value is on record as −14.11%; the “Freeze-Thaw Stability (Three Cycles), RE” value is on record as −5.77%; the “Long-Term Stability” value is −1.20%.
In data set [1] (setting [4]), `O=C(O)/C=C/c1ccc(O)c(O)c1` [Compound V, caffeic acid] had an AUC(0-inf) of 237 ± 43.6 ng·h/mL, a clearance of 34.7 mL/min/kg and a half-life of 6.09 ± 0.9 h. In addition, in data set [1] (setting [5]), the AUC(0-t) was determined as 146 ± 40.8 ng·h/mL. In data set [1] (setting [6]), the MRT last was 4.09 ± 1.36 h and the MRT inf came out at 9.75 ± 1.7 h. Besides, in data set [1] (setting [7]), the Vd is 17.9 ± 1.44 L/kg. For the same molecule, in data set [2] (setting [8]), the “6 h in Auto-Sample, RE” value is −11.88%; the “Freeze-Thaw Stability (Three Cycles), RE” value was −7.76%; the “Long-Term Stability” value is recorded as 7.83%. Besides, in data set [2] (setting [9]), the “6 h in Auto-Sample, RE” value is −18.04%; the “Freeze-Thaw Stability (Three Cycles), RE” value was −13.66%; the “Long-Term Stability” value was −17.21%. Moreover, in data set [2] (setting [10]), the “6 h in Auto-Sample, RE” value is listed as −14.10%; the “Freeze-Thaw Stability (Three Cycles), RE” value was −2.10%; the “Long-Term Stability” value was −5.99%.
In data set [1] (setting [4]), `O=c1cc(-c2ccc(O)c(O)c2)oc2cc(O[C@@H]3O[C@H](CO[C@@H]4O[C@H](CO)[C@@H](O)[C@H](O)[C@H]4O)[C@@H](O)[C@H](O)[C@H]3O)cc(O)c12` [Compound VI, luteolin-7-O-β-D-gentiobioside] showed an AUC(0-inf) of 173 ± 15 ng·h/mL, a clearance of 128 mL/min/kg and a half-life of 0.23 ± 0.12 h. Further, the AUC(0-t) in data set [1] (setting [5]) worked out at 164 ± 8.34 ng·h/mL. In addition, in data set [1] (setting [6]), the MRT last came to 0.2 ± 0.08 h and the MRT inf is 0.28 ± 0.15 h. Also, the Vd in data set [1] (setting [7]) was found to be 2.51 ± 1.13 L/kg. Also, in data set [2] (setting [8]), the “6 h in Auto-Sample, RE” value is recorded as 0.23%; the “Freeze-Thaw Stability (Three Cycles), RE” value is given as 9.34%; the “Long-Term Stability” value was −5.24%. Further, in data set [2] (setting [9]), the “6 h in Auto-Sample, RE” value is reported as −14.11%; the “Freeze-Thaw Stability (Three Cycles), RE” value is −13.29%; the “Long-Term Stability” value was −0.68%. Further, in data set [2] (setting [10]), the “6 h in Auto-Sample, RE” value was −14.25%; the “Freeze-Thaw Stability (Three Cycles), RE” value is recorded as −3.78%; the “Long-Term Stability” value is listed as 2.31%.
